From PubChem BioAssay (NCI)
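Assay format: 96-well plates, 48-hour exposure. Definition used: TGI = concentration required for complete inhibition of growth.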

How the values were obtained:
Test in all cases: NCI anticancer screen, dose series, 48 h
[1] = system: 786-0 renal
[2] = system: A498 renal
[3] = system: A549 NSCLC
[4] = system: ACHN renal
[5] = system: BT-549 breast
[6] = system: CAKI-1 renal
[7] = system: CCRF-CEM leukemia
[8] = system: COLO 205 colon
[9] = system: DU-145 prostate
[10] = system: EKVX NSCLC
[11] = system: HCT-116 colon
[12] = system: HCT-15 colon
[13] = system: HL-60(TB) leukemia
[14] = system: HOP-62 NSCLC
[15] = system: HS 578T breast
[16] = system: HT29 colon
[17] = system: IGROV1 ovarian
[18] = system: K-562 leukemia
[19] = system: KM12 colon
[20] = system: LOX IMVI melanoma
[21] = system: M14 melanoma
[22] = system: MALME-3M melanoma
[23] = system: MCF7 breast
[24] = system: MDA-MB-231 breast
[25] = system: MDA-MB-435
[26] = system: MDA-N
[27] = system: MOLT-4 leukemia
[28] = system: NCI-H226 lung
[29] = system: NCI-H23 lung
[30] = system: NCI-H460 lung
[31] = system: NCI-H522 lung
[32] = system: NCI/ADR-RES ovarian
[33] = system: OVCAR-3 ovarian
[34] = system: OVCAR-4 ovarian
[35] = system: OVCAR-5 ovarian
[36] = system: OVCAR-8 ovarian
[37] = system: PC-3 prostate
[38] = system: RPMI-8226 leukemia
[39] = system: RXF 393 renal
[40] = system: SF-268 CNS
[41] = system: SF-295 CNS
[42] = system: SF-539 CNS
[43] = system: SK-MEL-2 melanoma
[44] = system: SK-MEL-28 melanoma
[45] = system: SK-MEL-5 melanoma
[46] = system: SK-OV-3 ovarian
[47] = system: SN12C renal
[48] = system: SNB-75 CNS
[49] = system: SR leukemia
[50] = system: SW-620 colon
[51] = system: T-47D breast
[52] = system: TK-10 renal
[53] = system: U251 CNS
[54] = system: UACC-257 melanoma
[55] = system: UACC-62 melanoma
[56] = system: UO-31 renal
[57] = system: HCC-2998 colon
[58] = system: HOP-92 NSCLC
[59] = system: SNB-19 CNS

Measured: TGI

Cc1ncc([N+](=O)[O-])n1CC[N+](C)([O-])CCCCn1ccnc1[N+](=O)[O-] (stereo not drawn)
not listed: [57] | [58] | [59]
> 100 µM: all other assays above

O=c1c2c3c(sc2nc2n1N=CN(c1ccccc1)C2)CCCC3
not listed: [13] | [42]
> 100 µM: all other assays above
